From PubChem BioAssay (NCI)
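Five compound concentrations were applied to cells in 96-well plates for 48 hours; endpoints were derived by simple linear interpolation of the resulting dose-response curve. TGI marks complete inhibition of growth.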

Tests used:
Test in all cases: NCI tumour cell line growth inhibition, 48 h
HCT-15 colon = test system: HCT-15 colon
PC-3 prostate = test system: PC-3 prostate
CCRF-CEM leukemia = test system: CCRF-CEM leukemia
NCI-H522 lung = test system: NCI-H522 lung
SNB-19 CNS = test system: SNB-19 CNS
IGROV1 ovarian = test system: IGROV1 ovarian
ACHN renal = test system: ACHN renal
NCI/ADR-RES ovarian = test system: NCI/ADR-RES ovarian
HCT-116 colon = test system: HCT-116 colon
SF-268 CNS = test system: SF-268 CNS

`CCCNC(=O)CCC(C)[C@H]1CCC2C3C(C[C@H](OC(C)=O)[C@@]21C)[C@@]1(C)CCC2(C[C@H]1C[C@H]3OC(C)=O)OOC1(CCC(C)CC1)OO2` (stereo not given in full) was tested, and the TGI (HCT-15 colon) was > 100 µM, the TGI (PC-3 prostate) was > 100 µM and the TGI (CCRF-CEM leukemia) was 2.16 µM. The TGI (NCI-H522 lung) was 33.3 µM, the TGI (SNB-19 CNS) was > 100 µM and the TGI (IGROV1 ovarian) was 4.36 µM. For the same molecule, the TGI (ACHN renal) was 4.08 µM, the TGI (NCI/ADR-RES ovarian) was 40.5 µM and the TGI (HCT-116 colon) was > 100 µM. It also gave a TGI (SF-268 CNS) of 50.8 µM.

Work on `O=P(c1ccccc1)(c1ccccc1)N1O[C@@H](c2ccccc2)C=C[C@H]1c1ccccc1` yielded a TGI (HCT-15 colon) of 26.3 µM, a TGI (PC-3 prostate) of 11.7 µM and a TGI (CCRF-CEM leukemia) of 53.5 µM. It also gave a TGI (NCI-H522 lung) of 24.5 µM, a TGI (SNB-19 CNS) of 30 µM and a TGI (IGROV1 ovarian) of 28.9 µM. The TGI (ACHN renal) was 21.9 µM, the TGI (NCI/ADR-RES ovarian) was 24 µM and the TGI (HCT-116 colon) was 16.1 µM. The TGI (SF-268 CNS) was 26.2 µM.

`CCOC(=O)c1c(-c2ccc(OC)cc2)c(C#N)c(=S)n(C2OC(COC(C)=O)C(OC(C)=O)C(OC(C)=O)C2OC(C)=O)c1C` (stereo not given) was tested, and the TGI (HCT-15 colon) was > 100 µM, the TGI (PC-3 prostate) was > 100 µM and the TGI (CCRF-CEM leukemia) was > 100 µM. For the same molecule, the TGI (NCI-H522 lung) was > 100 µM, the TGI (SNB-19 CNS) was > 100 µM and the TGI (IGROV1 ovarian) was > 100 µM. The TGI (ACHN renal) was > 100 µM, the TGI (NCI/ADR-RES ovarian) was > 100 µM and the TGI (HCT-116 colon) was > 100 µM. The TGI (SF-268 CNS) was > 100 µM.

`N#C/C(=C\c1cc(Br)c(O)c(Br)c1)c1cccnc1` was tested, and the TGI (HCT-15 colon) was 44 µM, the TGI (PC-3 prostate) was 69.7 µM and the TGI (CCRF-CEM leukemia) was > 100 µM. For the same molecule, the TGI (NCI-H522 lung) was > 100 µM, the TGI (SNB-19 CNS) was > 100 µM and the TGI (IGROV1 ovarian) was > 100 µM. For the same molecule, the TGI (ACHN renal) was > 100 µM, the TGI (NCI/ADR-RES ovarian) was 59.1 µM and the TGI (HCT-116 colon) was > 100 µM. The TGI (SF-268 CNS) was > 100 µM.

In the case of `C/C=C/C=C/c1nc(C#N)c(N)o1`, the TGI (HCT-15 colon) is reported as > 100 µM, the TGI (PC-3 prostate) is reported as > 100 µM and the TGI (CCRF-CEM leukemia) is reported as > 100 µM. The TGI (NCI-H522 lung) was > 100 µM, the TGI (SNB-19 CNS) was > 100 µM and the TGI (IGROV1 ovarian) was > 100 µM. For the same molecule, the TGI (ACHN renal) was > 100 µM, the TGI (NCI/ADR-RES ovarian) was > 100 µM and the TGI (HCT-116 colon) was > 100 µM. For the same molecule, the TGI (SF-268 CNS) was > 100 µM.

For `Oc1ccccc1/C=N/c1nc2cc3sc(/N=C/c4ccccc4O)nc3cc2s1`, the TGI (HCT-15 colon) was > 100 µM, the TGI (PC-3 prostate) was > 100 µM and the TGI (CCRF-CEM leukemia) was > 100 µM. The TGI (NCI-H522 lung) was > 100 µM, the TGI (SNB-19 CNS) was > 100 µM and the TGI (IGROV1 ovarian) was > 100 µM. For the same molecule, the TGI (ACHN renal) was > 100 µM, the TGI (NCI/ADR-RES ovarian) was > 100 µM and the TGI (HCT-116 colon) was > 100 µM. The TGI (SF-268 CNS) was > 100 µM.

For `COc1ccc(CC(O)CN2CCOCC2)cc1` (stereo not given), the TGI (HCT-15 colon) was > 100 µM, the TGI (PC-3 prostate) was > 100 µM and the TGI (CCRF-CEM leukemia) was > 100 µM. For the same molecule, the TGI (NCI-H522 lung) was > 100 µM, the TGI (SNB-19 CNS) was > 100 µM and the TGI (IGROV1 ovarian) was > 100 µM. For the same molecule, the TGI (ACHN renal) was > 100 µM, the TGI (NCI/ADR-RES ovarian) was > 100 µM and the TGI (HCT-116 colon) was > 100 µM. The TGI (SF-268 CNS) was > 100 µM.

For `O=c1cc(N=P(c2ccccc2)(c2ccccc2)c2ccccc2)n(-c2ccccc2)c(=O)n1-c1ccccc1`, the TGI (HCT-15 colon) was > 100 µM, the TGI (PC-3 prostate) was 18.6 µM and the TGI (CCRF-CEM leukemia) was 82.5 µM. It also gave a TGI (NCI-H522 lung) of 37.3 µM, a TGI (SNB-19 CNS) of 63.5 µM and a TGI (IGROV1 ovarian) of 58.8 µM. The TGI (ACHN renal) was 45.4 µM, the TGI (NCI/ADR-RES ovarian) was > 100 µM and the TGI (HCT-116 colon) was 42.5 µM. The TGI (SF-268 CNS) was > 100 µM.

In the case of `N#CCCN(CCC#N)c1ccc(/C=C2\N=C(c3ccccc3)N(c3ccc(Cl)cc3)C2=O)cc1`, the TGI (HCT-15 colon) is reported as > 100 µM, the TGI (PC-3 prostate) is reported as > 100 µM and the TGI (CCRF-CEM leukemia) is reported as > 100 µM. For the same molecule, the TGI (NCI-H522 lung) was > 100 µM, the TGI (SNB-19 CNS) was > 100 µM and the TGI (IGROV1 ovarian) was > 100 µM. For the same molecule, the TGI (ACHN renal) was > 100 µM, the TGI (NCI/ADR-RES ovarian) was > 100 µM and the TGI (HCT-116 colon) was > 100 µM. For the same molecule, the TGI (SF-268 CNS) was > 100 µM.

With `O=C1c2cc3c(cc2CC1Br)CCC3` (stereo not given) the TGI (HCT-15 colon) was 4.82 µM, the TGI (PC-3 prostate) was 11.7 µM and the TGI (CCRF-CEM leukemia) was 2.18 µM. For the same molecule, the TGI (NCI-H522 lung) was 3 µM, the TGI (SNB-19 CNS) was 27.6 µM and the TGI (IGROV1 ovarian) was 9.3 µM. The TGI (ACHN renal) was 13.1 µM, the TGI (NCI/ADR-RES ovarian) was 19.2 µM and the TGI (HCT-116 colon) was 3.03 µM. It also gave a TGI (SF-268 CNS) of 28.5 µM.

In the case of `Clc1ccc(-c2nn3c(-c4ccncc4)nnc3s2)cc1`, the TGI (HCT-15 colon) is reported as 90.7 µM, the TGI (PC-3 prostate) is reported as > 100 µM and the TGI (CCRF-CEM leukemia) is reported as > 100 µM. For the same molecule, the TGI (NCI-H522 lung) was > 100 µM, the TGI (SNB-19 CNS) was > 100 µM and the TGI (IGROV1 ovarian) was > 100 µM. For the same molecule, the TGI (ACHN renal) was > 100 µM, the TGI (NCI/ADR-RES ovarian) was > 100 µM and the TGI (HCT-116 colon) was > 100 µM. The TGI (SF-268 CNS) was > 100 µM.
